Experimental findings from US7132420B2, “Aspartic protease inhibitors” (The United States of America as represented by the …, priority 1999, dated 2006) are described below.

Like-named read-outs stand apart in the source and are kept apart here.

The target of data set [1] is 84V mutant HIV-1 protease (Human immunodeficiency virus type 1 group M subtype B, UniProt P04585, I572V). The data set can be described thus: HIV protease assay, 84V mutant (Ki). It counts as biochemical. The source says: (§1) This example illustrates the HIV-1 protease inhibition activity (Ki), HIV-1 antiviral data (EC50), and the toxicity against normal cells (IC50), for particular compounds of formula (I). The HIV protease assay was done according to the protocol described in Kageyama et al, Antimicrob. Agents Chemother., 37, 272 (1993). The HIV antiviral assay was done according to the protocol described in Weislow et al., J. National Cancer Inst. 81, 577 (1989).

The target in another data set is HIV-1 protease (Human immunodeficiency virus type 1 group M subtype B, UniProt P04585). The data set can be described thus: HIV protease assay (Ki). It counts as biochemical.
Text: as §1
(§2) The HIV protease assay was done according to the protocol described in Example 35. The plasmepsin II assay was done according to the protocol used in Silva et al., Proc. Nat. Acad. Sci. USA, 93, pp. 10034–10039, September 1996 (Biochemstry). The cathepsin D assay was done according to the protocol described in Gulnik et al., FEBS Letters, 413, 379–384 (1997). The compounds illustrated in Table 2 are of the general formula (II), as described in Example 35.

The test system of a further data set is HIV-1. Kind of data set: HIV antiviral assay (EC50). Format: cell-based. The source says:
The HIV protease assay was done according to the protocol described in Kageyama et al, Antimicrob. Agents Chemother., 37, 272 (1993). The HIV antiviral assay was done according to the protocol described in Weislow et al., J. National Cancer Inst. 81, 577 (1989).

The next data set has as its system normal cells. Kind of data set: toxicity against normal cells (IC50). It counts as cell-based.
Text: as §1

Data set [2] addresses 82F/84V mutant HIV-1 protease (Human immunodeficiency virus type 1 group M subtype B, UniProt P04585, I572V/V570F). Format: biochemical.
Text: as §1

Another data set has as its target cathepsin D (Homo sapiens, UniProt P07339). Kind of data set: cathepsin D assay (Ki). Format: biochemical. The note with it: for Ki: Table 2, read-out: Cath D Ki.
Text: as §2

Another data set concerns the target plasmepsin II (Plasmodium falciparum, UniProt P46925). Kind of data set: biochemical. It counts as biochemical. Conditions: for Ki: Table 2, read-out: Pls II Ki.
Text: as §2

Another data set can be described thus: Rat IV pharmacokinetics. It counts as in vivo, rats. The note with it: IV about 5 mg/kg. Here is the method: (§3) This example illustrates the oral bioavailability of various compounds of the present invention. […] Drug concentrations were measured by centrifuging plasma samples, extracting the supernatants with tert-butyl methyl ether, and analyzing the extracts by HPLC. Oral bioavailability (% F) was calculated on the basis of the ratio of the amount of drug absorbed systemically from oral administration (AUC p.o.) relative to the amount of systemic drug obtained from intravenous administration (AUC iv).

Data set [3] can be described thus: Rat P.O. pharmacokinetics and oral bioavailability. It counts as in vivo, rats. Conditions: for Cmax / Rat P.O. tmax: P.O. about 37 mg/kg, PEG 300 vehicle. Here is the method:
as §3

The mark [4] stands for this setting: Table 1, in nM, read-out: HIV-1 Ki.

Chain of plasmepsin II (P46925 125-453): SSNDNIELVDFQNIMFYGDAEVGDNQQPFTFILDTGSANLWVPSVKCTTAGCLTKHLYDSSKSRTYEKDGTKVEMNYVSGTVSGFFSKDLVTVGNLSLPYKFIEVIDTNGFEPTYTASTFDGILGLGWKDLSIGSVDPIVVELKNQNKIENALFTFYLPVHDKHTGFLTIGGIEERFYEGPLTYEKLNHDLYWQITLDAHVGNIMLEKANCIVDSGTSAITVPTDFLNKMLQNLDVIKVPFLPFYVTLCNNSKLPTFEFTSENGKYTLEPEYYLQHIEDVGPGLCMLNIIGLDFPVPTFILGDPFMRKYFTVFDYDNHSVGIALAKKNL
Chain of cathepsin D (P07339 65-412): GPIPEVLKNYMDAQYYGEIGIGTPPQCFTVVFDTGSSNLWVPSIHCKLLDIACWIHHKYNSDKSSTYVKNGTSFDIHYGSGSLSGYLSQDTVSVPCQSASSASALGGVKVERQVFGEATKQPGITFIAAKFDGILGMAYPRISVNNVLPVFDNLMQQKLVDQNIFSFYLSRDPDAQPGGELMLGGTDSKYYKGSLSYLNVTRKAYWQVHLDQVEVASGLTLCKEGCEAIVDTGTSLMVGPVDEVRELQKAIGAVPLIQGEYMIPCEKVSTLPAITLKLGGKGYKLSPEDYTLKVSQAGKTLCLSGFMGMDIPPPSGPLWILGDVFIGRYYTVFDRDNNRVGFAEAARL

On to `CC(C)C[C@@H](C[C@H](O)[C@H](Cc1ccccc1)NC(=O)c1ccccc1NC(=O)OCc1ccccn1)NC(=O)c1ccccc1NC(=O)OCc1ccccn1` [(21)], for which the Ki in data set [1] (Table 1, in nM) was found to be 2.7 nM; at HIV-1 protease (Table 1, read-out: HIV-1 Ki), 0.14 nM. The response in the data set on HIV-1 (Table 1) was half-maximal at 127 nM (EC50). In addition, the half-inhibitory concentration (IC50) in the data set on normal cells (Table 1) was greater than 20000 nM.
Take `CC(C)[C@H](NC(=O)OCc1ccccn1)C(=O)N[C@@H](Cc1ccccc1)C[C@H](O)[C@H](Cc1ccccc1)NC(=O)[C@@H](NC(=O)OCc1ccccn1)C(C)C` [(22), reference compound]: the Ki was 0.21 nM in data set [1] (Table 1); 0.015 nM on HIV-1 protease (Table 1, read-out: HIV-1 Ki); 0.271 nM in [2] (Table 1).
Consider `Cc1cccc(C)c1OCC(=O)N[C@@H](Cc1ccccc1)[C@@H](O)C[C@H](Cc1ccccc1)NC(=O)[C@H](C(C)C)N1CCCNC1=O` [(24), reference compound], for which the Ki on cathepsin D was 1960 nM; at HIV-1 protease (Table 1, read-out: HIV-1 Ki), 0.013 nM; on HIV-1 protease (Table 2, read-out: HIV-1 Ki), 0.012 nM; on plasmepsin II, 3500 nM. For the same compound, the EC50 in the data set on HIV-1 (Table 1) and in the data set with HIV-1 (Table 2) was 41 nM each time. Moreover, the IC50 in the data set on normal cells (Table 1) and in the data set on normal cells (Table 2) was greater than 100000 nM each time.
Take `Cc1cccc(C)c1OCC(=O)N[C@@H](Cc1ccccc1)[C@@H](O)C[C@H](CC(C)C)NC(=O)O[C@H]1CCOC1` [(26)]: the Ki at cathepsin D stood at 3.5 nM; on HIV-1 protease (Table 1, read-out: HIV-1 Ki), 0.06 nM; on HIV-1 protease (Table 2, read-out: HIV-1 Ki), 0.06 nM; in [2] (Table 1, in nM), 2.7 nM; at plasmepsin II, 55 nM. In addition, the EC50 in the data set on HIV-1 (Table 1) and in the data set with HIV-1 (Table 2) was 700 nM in each case. This compound showed an IC50 with normal cells (Table 2) greater than 100000 nM.
Turning to `Cc1cccc(C)c1OCC(=O)N[C@@H](Cc1ccccc1)[C@@H](O)C[C@H](CC(C)C)NC(=O)NC(C)(C)C` [(28), (2S,3S,5S)-5-[N-[[N′-(tert-butyl)amino]carbonyl]amino]-2-[N-[2-(2,6-dimethylphenoxy)acetyl]amino]-3-hydroxy-7-methyl-1-phenyloctane], at cathepsin D, the “inhibitory activity against cathepsin D, in words” value is reported as “generally potent”. In addition, the “inhibitory activity against HIV-1 protease, in words” value at HIV-1 protease is given as “generally potent”. Moreover, the Ki on HIV-1 protease (Table 1, read-out: HIV-1 Ki) worked out at 0.1 nM; on HIV-1 protease (Table 2, read-out: HIV-1 Ki) it was 0.1 nM; at plasmepsin II it was 107 nM. In addition, the EC50 in the data set on HIV-1 (Table 1) and in the data set with HIV-1 (Table 2) was 2000 nM throughout. The IC50 in the data set on normal cells (Table 2) is greater than 100000 nM. The “inhibitory activity against plasmepsin II, in words” value against plasmepsin II is recorded as “generally potent”.
For the compound `Cc1cccc(C)c1OCC(=O)N[C@@H](Cc1ccccc1)[C@@H](O)C[C@H](CC(C)C)NC(=O)[C@@H]1CCNC(=O)N1` [(29), (2S,3S,5S)-2-[N-[2-(2,6-dimethylphenoxy)acetyl]amino]-5-[N-[2S-(2-oxopyrimidinyl)-4-carbonyl]amino]-3-hydroxy-7-methyl-1-phenyloctane], the Ki on cathepsin D came out at 305 nM; on HIV-1 protease (setting [4]), 16 nM; on HIV-1 protease (Table 2, read-out: HIV-1 Ki), 0.16 nM; on plasmepsin II, 3500 nM. Further, the “HIV-1 EC50 (μM)” value is given as “in-active” with HIV-1 (Table 1) and “notactive” in the data set on HIV-1 (Table 2).
Consider `Cc1cccc(C)c1OCC(=O)N[C@@H](Cc1ccccc1)[C@@H](O)C[C@H](CC(C)C)NC(=O)[C@@H](NC(=O)OCc1ccccn1)C(C)C` [(30), (2S,3S,5S)-2-[N-[2-(2,6-dimethylphenoxy)acetyl]amino]-5-[N-[N′-(pyridine-2-methoxycarbonyl)valinyl]amino]-3-hydroxy-7-methyl-1-phenyloctane], for which the Ki at cathepsin D amounted to 3300 nM; at HIV-1 protease (Table 1, read-out: HIV-1 Ki), 0.017 nM; on HIV-1 protease (Table 2, read-out: HIV-1 Ki), 0.017 nM; in data set [2] (Table 1), 0.41 nM; at plasmepsin II it was 2350 nM. Further, the EC50 with HIV-1 (Table 1) and with HIV-1 (Table 2) was 83 nM throughout. For the same compound, the IC50 in the data set on normal cells (Table 1) and in the data set with normal cells (Table 2) was greater than 100000 nM each time.
For `Cc1cccc(C)c1OCC(=O)N[C@@H](Cc1ccccc1)[C@@H](O)C[C@H](CC(C)C)NC(=O)c1ccc(N)cc1` [(31), (2S,3S,5S)-5-[N-(4-aminobenzoyl)amino]-2-[N-[2-(2,6-dimethylphenoxy)acetyl]amino]-3-hydroxy-7-methyl-1-phenyloctane], the “inhibitory activity against cathepsin D, in words” value against cathepsin D is “generally potent”. The Ki amounted to 1.2 nM at HIV-1 protease and 30 nM at plasmepsin II. Also, the “inhibitory activity against HIV-1 protease, in words” value on HIV-1 protease is recorded as “generally potent”. The compound also registered a concentration for a half-maximal effect (EC50) in the data set on HIV-1 (Human immunodeficiency virus 1, Table 1) of 2000 nM. Also, the IC50 in the data set on normal cells (Table 1) and in the data set on normal cells (Table 2) was greater than 100000 nM throughout. In addition, the “inhibitory activity against plasmepsin II, in words” value on plasmepsin II is on record as “generally potent”.
With `Cc1cccc(C)c1OCC(=O)N[C@@H](Cc1ccccc1)[C@@H](O)C[C@H](CC(C)C)NC(=O)c1cccc(N)c1` [(32)], the “inhibitory activity against cathepsin D, in words” value against cathepsin D was “generally potent”. Moreover, the Ki stood at 7.4 nM on cathepsin D; 0.331 nM at HIV-1 protease (Table 1, read-out: HIV-1 Ki); 0.33 nM on HIV-1 protease (Table 2, read-out: HIV-1 Ki); 18 nM on plasmepsin II. Further, the “inhibitory activity against HIV-1 protease, in words” value against HIV-1 protease is “generally potent”. In addition, the EC50 in the data set on HIV-1 (Table 1) and in the data set on HIV-1 (Table 2) was 2000 nM in each case. The concentration for half-maximal inhibition (IC50) in the data set with normal cells (Table 1) and in the data set with normal cells (Table 2) was greater than 100000 nM in each case. Moreover, the “inhibitory activity against plasmepsin II, in words” value on plasmepsin II is “generally potent”.
`CC(C)C[C@@H](C[C@H](O)[C@H](Cc1ccccc1)NC(=O)O[C@H]1CCOC1)NC(=O)[C@H](C(C)C)N1CCCNC1=O` [(35), (2S,3S,5S)-2-[N-(3S-terahydrofuranyloxycarbonyl]amino]-5-[N-[[3-methyl-2S-(2-oxo-tetrahydropyrimidin-1-yl)]butyryl]amino]-3-hydroxy-7-methyl-1-phenyloctane]: the Ki at HIV-1 protease (Table 1, read-out: HIV-1 Ki) amounted to 0.094 ± 0.024 nM; in [2] (Table 1, in nM), 3.2 nM. This compound returned an EC50 with HIV-1 (Table 1) of 700 nM. This compound also returned an IC50 in the data set on normal cells (Table 1) greater than 100000 nM.
`Cc1ccccc1C(=O)N[C@@H](Cc1ccccc1)[C@@H](O)C[C@H](CC(C)C)NC(=O)OC(C)(C)C` [(38)]: the Ki in [1] (Table 1, in nM) is 12 nM; at HIV-1 protease (setting [4]), 2.1 nM.
As for `Cc1cccc(C)c1OCC(=O)N[C@@H](CC(C)C)C[C@H](O)[C@H](Cc1ccccc1)NC(=O)[C@H](C(C)C)N1CCCNC1=O` [(43)], in the data set “Rat IV pharmacokinetics”, the “Rat IV CL” value was found to be 36.6 mL/min/kg and the “Rat IV t1/2” value came to 28 min. In data set [3], the concentration peaked (Cmax) at 2100 nM and the “Rat P.O. tmax” value was determined as 120 min. For the same compound, in [3] (oral), the “Cmax when administered orally, in words” value was “micromolar”. The Ki at HIV-1 protease (Table 1, read-out: HIV-1 Ki) came to 0.176 nM. Further, the Ki on HIV-1 protease (Table 3, read-out: HIV-1 Ki) amounted to 0.176 nM. The midpoint of the response in the data set with HIV-1 (Table 1), the EC50, lay at 540 nM. This compound also returned an EC50 in the data set on HIV-1 (Table 3) of 540 nM. Also, the IC50 in the data set on normal cells (Table 1) was greater than 100000 nM.
`Cc1cccc(C)c1OCC(=O)N[C@@H](Cc1ccccc1)[C@@H](O)C[C@H](CC(C)C)NC(=O)[C@@H](NC(=O)N1CCOCC1)C(C)C` [(45), (2S,3S,5S)-2-[N-[2-(2,6-dimethylphenoxy)acetyl]amino]-5-[N-[[N′-(morpholin-4)carbonyl]valinyl]amino]-3-hydroxy-7-methyl-1-phenyloctane]: in the data set “Rat IV pharmacokinetics”, the “Rat IV CL” value worked out at 67.5 mL/min/kg. The “Rat IV t1/2” value in “Rat IV pharmacokinetics” is 20 min. Further, the “Rat P.O. % F (%)” value in data set [3] (AUC p.o. relative to AUC iv) was 29%. In [3], this compound registered a Cmax of 573 nM. Besides, in data set [3], the “Rat P.O. tmax” value worked out at 16 min. Besides, the Ki at HIV-1 protease (Table 1, read-out: HIV-1 Ki) came to 0.05 nM; on HIV-1 protease (Table 3, read-out: HIV-1 Ki), 0.05 nM; in data set [2] (Table 1) it was 0.437 nM. Moreover, the EC50 in the data set with HIV-1 (Table 1) and with HIV-1 (Table 3) was 170 nM each time. The compound also registered an IC50 with normal cells (Table 1) greater than 100000 nM.
As to `CCOC(=O)N[C@H](C(=O)N[C@@H](CC(C)C)C[C@H](O)[C@H](Cc1ccccc1)NC(=O)COc1c(C)cccc1C)C(C)C` [(46)], the Ki on HIV-1 protease (Table 1, read-out: HIV-1 Ki) is 0.054 nM; in data set [2] (Table 1) it was 0.671 nM. Moreover, in the data set with HIV-1 (Table 1), the midpoint of the response, the EC50, lay at 160 nM. The IC50 in the data set on normal cells (Table 1) is greater than 100000 nM.

One may read the Ki as a measure of affinity in units of concentration, obtained from inhibition or displacement. In general, EC50 refers to the concentration needed to bring the measured effect to its halfway point. As a reminder, the IC50 is the concentration that inhibits the measured activity by half. Lower therefore signals higher potency. By Cmax is commonly meant the peak of the concentration-time curve.
